{
  "source": "paper PMC8429728",
  "about": "“TNK1 is a ubiquitin-binding and 14-3-3-regulated kinase that can be targeted to block tumor growth” (Nature Communications, 2021)",
  "key": {"DAPK2": {"molecular_target": "DAPK2 (Homo sapiens, UniProt Q9UIK4)", "sequence (Q9UIK4 whole entry)": "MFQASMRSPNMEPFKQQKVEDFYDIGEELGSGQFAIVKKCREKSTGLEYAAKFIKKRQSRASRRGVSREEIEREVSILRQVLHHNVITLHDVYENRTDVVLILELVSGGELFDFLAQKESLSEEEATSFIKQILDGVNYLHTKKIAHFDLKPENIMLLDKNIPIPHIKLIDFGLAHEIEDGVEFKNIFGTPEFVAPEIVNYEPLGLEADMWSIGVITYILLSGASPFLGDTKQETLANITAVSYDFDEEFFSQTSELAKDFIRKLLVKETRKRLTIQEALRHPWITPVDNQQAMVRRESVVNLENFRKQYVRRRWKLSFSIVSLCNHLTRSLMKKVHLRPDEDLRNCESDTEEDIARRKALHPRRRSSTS", "assay": "biochemical", "design": "Reaction Biology 371-kinase panel at Km ATP, per cent enzyme activity relative to DMSO, single dose in duplicate", "conditions": "duplicate measurements, Km ATP", "how_it_was_run": "(§1)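 Compound screened at 300 nM in vitro across a 371-kinase panel. Enzyme activity expressed as % of DMSO controls. IC50 values came from sigmoidal variable-slope dose-response fits with the bottom fixed at 0.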"}, "CHK1": {"molecular_target": "T1, CHK1 (Homo sapiens, UniProt O14757)", "T1 construct": "gene CHEK1", "T1 sequence (O14757 whole entry)": "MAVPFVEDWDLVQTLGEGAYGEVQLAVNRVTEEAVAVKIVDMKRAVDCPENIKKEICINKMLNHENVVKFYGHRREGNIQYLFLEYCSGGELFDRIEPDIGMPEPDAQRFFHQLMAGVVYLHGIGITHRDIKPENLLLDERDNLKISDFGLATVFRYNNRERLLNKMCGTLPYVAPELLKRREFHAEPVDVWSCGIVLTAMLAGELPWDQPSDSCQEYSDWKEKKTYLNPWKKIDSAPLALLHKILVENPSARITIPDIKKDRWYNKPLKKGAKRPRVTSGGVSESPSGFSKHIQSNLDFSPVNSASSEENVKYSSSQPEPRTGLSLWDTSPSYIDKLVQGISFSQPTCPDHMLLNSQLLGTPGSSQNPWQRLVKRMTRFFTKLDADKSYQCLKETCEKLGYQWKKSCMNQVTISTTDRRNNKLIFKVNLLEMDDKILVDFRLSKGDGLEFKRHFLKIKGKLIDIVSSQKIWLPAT", "assay": "biochemical", "design": "Reaction Biology 371-kinase panel at Km ATP, per cent enzyme activity relative to DMSO, single dose in duplicate", "conditions": "duplicate measurements, Km ATP", "how_it_was_run": "as §1"}, "GRK4": {"molecular_target": "GRK4 (Homo sapiens, UniProt P32298)", "sequence (P32298 whole entry)": "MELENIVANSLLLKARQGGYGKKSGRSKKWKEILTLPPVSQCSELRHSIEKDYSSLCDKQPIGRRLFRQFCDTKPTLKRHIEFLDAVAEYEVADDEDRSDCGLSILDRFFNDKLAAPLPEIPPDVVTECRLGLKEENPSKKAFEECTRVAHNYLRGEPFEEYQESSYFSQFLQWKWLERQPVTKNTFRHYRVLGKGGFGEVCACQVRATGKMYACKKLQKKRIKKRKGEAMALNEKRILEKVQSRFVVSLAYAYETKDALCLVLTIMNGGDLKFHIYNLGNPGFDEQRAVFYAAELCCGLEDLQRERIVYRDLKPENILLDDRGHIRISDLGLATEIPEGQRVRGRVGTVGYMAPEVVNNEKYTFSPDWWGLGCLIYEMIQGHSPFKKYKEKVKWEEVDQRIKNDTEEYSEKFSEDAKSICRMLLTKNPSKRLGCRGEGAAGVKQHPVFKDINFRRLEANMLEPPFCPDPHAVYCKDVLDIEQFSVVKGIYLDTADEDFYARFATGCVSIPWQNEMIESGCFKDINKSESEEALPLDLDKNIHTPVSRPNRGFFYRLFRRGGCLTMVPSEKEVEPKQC", "assay": "biochemical", "design": "Reaction Biology 371-kinase panel at Km ATP, per cent enzyme activity relative to DMSO, single dose in duplicate", "conditions": "duplicate measurements, Km ATP", "how_it_was_run": "as §1"}, "CDK9/cyclin T2": {"molecular_target": "CDK9/cyclin T2 (Homo sapiens, UniProt P50750)", "sequence (P50750 whole entry)": "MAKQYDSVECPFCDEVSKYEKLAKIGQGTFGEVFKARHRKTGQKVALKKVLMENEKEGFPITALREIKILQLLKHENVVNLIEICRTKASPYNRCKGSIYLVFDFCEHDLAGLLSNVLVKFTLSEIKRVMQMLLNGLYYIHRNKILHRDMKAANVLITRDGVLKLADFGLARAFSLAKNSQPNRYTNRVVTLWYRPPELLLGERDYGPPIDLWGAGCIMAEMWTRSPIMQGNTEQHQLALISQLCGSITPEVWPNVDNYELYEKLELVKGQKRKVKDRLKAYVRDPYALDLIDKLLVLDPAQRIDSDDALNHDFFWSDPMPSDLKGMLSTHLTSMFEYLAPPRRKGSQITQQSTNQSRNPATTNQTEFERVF", "sequence (O60583 whole entry partner)": "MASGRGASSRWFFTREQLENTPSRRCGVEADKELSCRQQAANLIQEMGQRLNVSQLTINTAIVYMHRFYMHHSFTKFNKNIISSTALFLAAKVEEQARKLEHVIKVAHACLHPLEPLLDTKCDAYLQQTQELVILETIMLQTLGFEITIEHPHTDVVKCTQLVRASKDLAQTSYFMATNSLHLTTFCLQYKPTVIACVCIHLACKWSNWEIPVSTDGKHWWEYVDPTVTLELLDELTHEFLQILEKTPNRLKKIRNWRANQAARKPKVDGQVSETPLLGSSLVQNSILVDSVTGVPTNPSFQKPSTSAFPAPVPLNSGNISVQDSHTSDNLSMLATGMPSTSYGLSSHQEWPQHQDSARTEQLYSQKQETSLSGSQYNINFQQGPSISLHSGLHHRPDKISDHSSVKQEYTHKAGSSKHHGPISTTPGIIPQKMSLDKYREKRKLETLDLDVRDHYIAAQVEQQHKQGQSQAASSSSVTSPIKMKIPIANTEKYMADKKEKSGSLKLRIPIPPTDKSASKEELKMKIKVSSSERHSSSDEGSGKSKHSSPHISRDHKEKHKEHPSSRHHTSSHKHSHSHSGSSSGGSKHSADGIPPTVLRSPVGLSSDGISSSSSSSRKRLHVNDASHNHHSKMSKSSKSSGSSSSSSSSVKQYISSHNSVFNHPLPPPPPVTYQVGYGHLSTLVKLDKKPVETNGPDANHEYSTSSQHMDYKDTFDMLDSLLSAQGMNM", "assay": "biochemical", "design": "Reaction Biology 371-kinase panel at Km ATP, per cent enzyme activity relative to DMSO, single dose in duplicate", "conditions": "duplicate measurements, Km ATP", "how_it_was_run": "as §1"}, "FGFR2": {"molecular_target": "FGFR2 (Homo sapiens, UniProt P21802)", "sequence (P21802 whole entry)": "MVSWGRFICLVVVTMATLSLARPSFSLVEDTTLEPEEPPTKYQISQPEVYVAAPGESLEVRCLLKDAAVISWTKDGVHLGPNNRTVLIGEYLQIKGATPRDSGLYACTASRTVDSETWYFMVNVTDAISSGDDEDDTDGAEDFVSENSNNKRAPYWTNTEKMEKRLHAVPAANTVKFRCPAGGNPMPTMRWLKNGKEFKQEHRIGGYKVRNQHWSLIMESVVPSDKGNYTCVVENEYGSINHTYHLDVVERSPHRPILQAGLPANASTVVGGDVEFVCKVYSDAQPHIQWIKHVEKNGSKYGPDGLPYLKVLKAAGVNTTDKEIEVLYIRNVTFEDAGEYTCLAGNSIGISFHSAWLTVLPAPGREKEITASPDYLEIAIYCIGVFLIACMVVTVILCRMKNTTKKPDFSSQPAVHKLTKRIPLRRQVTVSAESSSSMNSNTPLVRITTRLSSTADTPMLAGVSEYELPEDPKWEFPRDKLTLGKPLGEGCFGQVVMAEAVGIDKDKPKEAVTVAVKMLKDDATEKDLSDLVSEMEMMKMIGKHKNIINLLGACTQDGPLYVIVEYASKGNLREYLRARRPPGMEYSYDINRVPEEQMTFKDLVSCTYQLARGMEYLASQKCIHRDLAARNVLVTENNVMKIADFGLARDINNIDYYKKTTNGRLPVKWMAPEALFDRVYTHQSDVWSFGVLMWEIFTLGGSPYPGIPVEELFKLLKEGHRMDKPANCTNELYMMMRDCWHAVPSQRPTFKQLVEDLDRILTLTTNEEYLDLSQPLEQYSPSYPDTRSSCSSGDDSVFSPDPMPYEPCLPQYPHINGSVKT", "assay": "biochemical", "design": "Reaction Biology 371-kinase panel at Km ATP, per cent enzyme activity relative to DMSO, single dose in duplicate", "conditions": "duplicate measurements, Km ATP", "how_it_was_run": "as §1"}, "TAK1": {"molecular_target": "T2, TAK1 (Homo sapiens, UniProt O43318)", "T2 construct": "gene MAP3K7", "assay": "biochemical", "design": "Reaction Biology 371-kinase panel at Km ATP, per cent enzyme activity relative to DMSO, single dose in duplicate", "conditions": "duplicate measurements, Km ATP", "how_it_was_run": "as §1"}, "PHKg1": {"molecular_target": "PHKg1 (Homo sapiens, UniProt Q16816)", "sequence (Q16816 whole entry)": "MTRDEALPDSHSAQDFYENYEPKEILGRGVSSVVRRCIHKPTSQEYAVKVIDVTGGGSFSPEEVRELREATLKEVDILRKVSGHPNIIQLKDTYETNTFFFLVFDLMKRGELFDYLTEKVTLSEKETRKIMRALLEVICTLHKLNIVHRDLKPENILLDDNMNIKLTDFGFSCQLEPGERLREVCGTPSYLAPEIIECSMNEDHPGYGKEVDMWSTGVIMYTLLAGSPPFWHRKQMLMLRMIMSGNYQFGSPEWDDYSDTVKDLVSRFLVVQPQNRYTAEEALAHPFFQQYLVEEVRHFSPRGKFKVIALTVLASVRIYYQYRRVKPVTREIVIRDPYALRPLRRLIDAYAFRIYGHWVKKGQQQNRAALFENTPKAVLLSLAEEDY", "assay": "biochemical", "design": "Reaction Biology 371-kinase panel at Km ATP, per cent enzyme activity relative to DMSO, single dose in duplicate", "conditions": "duplicate measurements, Km ATP", "how_it_was_run": "as §1"}, "PLK4/SAK": {"molecular_target": "PLK4/SAK (Homo sapiens, UniProt O00444)", "sequence (O00444 whole entry)": "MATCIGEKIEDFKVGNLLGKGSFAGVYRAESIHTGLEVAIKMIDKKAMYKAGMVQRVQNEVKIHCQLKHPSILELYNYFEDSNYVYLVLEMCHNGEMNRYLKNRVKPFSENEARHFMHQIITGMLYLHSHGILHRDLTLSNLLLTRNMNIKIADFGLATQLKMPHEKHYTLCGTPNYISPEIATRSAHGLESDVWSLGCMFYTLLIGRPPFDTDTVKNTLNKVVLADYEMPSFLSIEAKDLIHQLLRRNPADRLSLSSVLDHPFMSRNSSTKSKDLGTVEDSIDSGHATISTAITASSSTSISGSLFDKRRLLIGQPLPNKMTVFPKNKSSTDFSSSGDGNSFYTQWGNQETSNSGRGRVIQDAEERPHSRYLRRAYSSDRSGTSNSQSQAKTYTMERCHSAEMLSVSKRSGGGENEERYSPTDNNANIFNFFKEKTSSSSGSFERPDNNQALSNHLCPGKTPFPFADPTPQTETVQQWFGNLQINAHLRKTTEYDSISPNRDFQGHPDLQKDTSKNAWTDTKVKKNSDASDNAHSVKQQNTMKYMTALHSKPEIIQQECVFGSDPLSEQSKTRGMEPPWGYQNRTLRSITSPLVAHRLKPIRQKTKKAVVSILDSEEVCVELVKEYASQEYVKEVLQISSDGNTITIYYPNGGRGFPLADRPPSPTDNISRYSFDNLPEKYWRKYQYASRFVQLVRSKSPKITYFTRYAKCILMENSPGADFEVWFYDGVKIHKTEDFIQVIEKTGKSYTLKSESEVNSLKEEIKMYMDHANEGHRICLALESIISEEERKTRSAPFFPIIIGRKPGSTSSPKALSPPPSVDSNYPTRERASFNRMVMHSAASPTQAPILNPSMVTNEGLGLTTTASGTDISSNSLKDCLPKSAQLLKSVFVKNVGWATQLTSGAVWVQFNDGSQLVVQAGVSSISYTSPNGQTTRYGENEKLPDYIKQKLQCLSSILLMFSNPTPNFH", "assay": "biochemical", "design": "Reaction Biology 371-kinase panel at Km ATP, per cent enzyme activity relative to DMSO, single dose in duplicate", "conditions": "duplicate measurements, Km ATP", "how_it_was_run": "as §1"}, "Aurora A": {"molecular_target": "T3, Aurora A (Homo sapiens, UniProt O14965)", "T3 construct": "gene AURKA", "T3 sequence (O14965 1-403)": "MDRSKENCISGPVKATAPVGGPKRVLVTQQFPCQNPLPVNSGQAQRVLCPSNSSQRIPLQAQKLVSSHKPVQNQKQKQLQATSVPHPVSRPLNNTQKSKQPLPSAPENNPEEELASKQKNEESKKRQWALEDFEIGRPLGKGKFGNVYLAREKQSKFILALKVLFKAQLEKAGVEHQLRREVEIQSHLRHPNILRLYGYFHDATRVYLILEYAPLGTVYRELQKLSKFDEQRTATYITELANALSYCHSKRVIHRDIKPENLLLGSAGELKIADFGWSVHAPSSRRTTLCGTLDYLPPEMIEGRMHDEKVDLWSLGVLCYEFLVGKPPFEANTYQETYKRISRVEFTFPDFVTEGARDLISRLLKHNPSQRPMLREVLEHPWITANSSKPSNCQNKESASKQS", "assay": "radiometric […]-ATP kinase assay with recombinant kinase at Km ATP ([…])", "assay_type": "biochemical"}, "TNK1": {"molecular_target": "T4, TNK1 (Homo sapiens, UniProt Q13470)", "T4 sequence (Q13470 1-666)": "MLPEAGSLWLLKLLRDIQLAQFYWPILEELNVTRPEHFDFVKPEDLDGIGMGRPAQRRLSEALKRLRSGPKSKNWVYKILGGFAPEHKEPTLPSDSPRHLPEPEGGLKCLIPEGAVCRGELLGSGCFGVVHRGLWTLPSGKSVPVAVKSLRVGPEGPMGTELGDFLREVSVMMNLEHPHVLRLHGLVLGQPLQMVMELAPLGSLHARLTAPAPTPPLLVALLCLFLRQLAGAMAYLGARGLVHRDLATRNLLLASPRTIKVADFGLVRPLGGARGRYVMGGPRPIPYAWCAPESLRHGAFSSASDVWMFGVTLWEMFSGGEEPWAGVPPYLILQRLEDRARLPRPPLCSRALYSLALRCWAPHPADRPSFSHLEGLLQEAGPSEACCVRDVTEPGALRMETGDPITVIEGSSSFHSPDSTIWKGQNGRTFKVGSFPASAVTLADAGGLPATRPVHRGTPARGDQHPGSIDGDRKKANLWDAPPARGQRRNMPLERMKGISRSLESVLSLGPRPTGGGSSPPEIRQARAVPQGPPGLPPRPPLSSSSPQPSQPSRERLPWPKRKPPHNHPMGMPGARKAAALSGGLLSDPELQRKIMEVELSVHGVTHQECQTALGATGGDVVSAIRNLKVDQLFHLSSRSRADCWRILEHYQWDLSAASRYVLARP", "assay": "radiometric […]-ATP kinase assay with recombinant kinase at Km ATP ([…]); supported by NanoBRET target engagement in HEK293 cells (IC50 […])", "assay_type": "biochemical"}, "[1]": {"conditions": "read-out: % Enzyme Activity (relative to DMSO controls) / TP-0005801 (0.3µM) / Data 1"}, "[2]": {"conditions": "read-out: % Enzyme Activity (relative to DMSO controls) / TP-0005801 (0.3µM) / Data 2"}},
  "note": "Like-named read-outs stand apart in the source and are kept apart here.",
  "data": [
    {"smiles": "COc1cc(N2CCN(C)CC2)c(C)cc1Nc1ncc(Br)c(Nc2cccnc2N(C)C)n1", "note": "[TP-5801]", "values": [
      {"measurement": "remaining activity at 0.3 µM", "setting": "DAPK2; [1]", "result": 95.1, "unit": "%"},
      {"measurement": "remaining activity at 0.3 µM", "setting": "DAPK2; [2]", "result": 93.2, "unit": "%"},
      {"measurement": "remaining activity at 0.3 µM", "setting": "CHK1; [1]", "result": 104, "unit": "%"},
      {"measurement": "remaining activity at 0.3 µM", "setting": "CHK1; [2]", "result": 101, "unit": "%"},
      {"measurement": "remaining activity at 0.3 µM", "setting": "GRK4; [1]", "result": 109, "unit": "%"},
      {"measurement": "remaining activity at 0.3 µM", "setting": "GRK4; [2]", "result": 108, "unit": "%"},
      {"measurement": "remaining activity at 0.3 µM", "setting": "CDK9/cyclin T2; [1]", "result": 89.2, "unit": "%"},
      {"measurement": "remaining activity at 0.3 µM", "setting": "CDK9/cyclin T2; [2]", "result": 88.6, "unit": "%"},
      {"measurement": "remaining activity at 0.3 µM", "setting": "FGFR2; [1]", "result": 89.2, "unit": "%"},
      {"measurement": "remaining activity at 0.3 µM", "setting": "FGFR2; [2]", "result": 87.3, "unit": "%"},
      {"measurement": "remaining activity at 0.3 µM", "setting": "TAK1; [1]", "result": 103, "unit": "%"},
      {"measurement": "remaining activity at 0.3 µM", "setting": "TAK1; [2]", "result": 102, "unit": "%"},
      {"measurement": "remaining activity at 0.3 µM", "setting": "PHKg1; [1]", "result": 30.6, "unit": "%"},
      {"measurement": "remaining activity at 0.3 µM", "setting": "PHKg1; [2]", "result": 29.7, "unit": "%"},
      {"measurement": "remaining activity at 0.3 µM", "setting": "PLK4/SAK; [1]", "result": 74.8, "unit": "%"},
      {"measurement": "remaining activity at 0.3 µM", "setting": "PLK4/SAK; [2]", "result": 72.8, "unit": "%"},
      {"measurement": "IC50", "setting": "Aurora A", "result": 5380, "unit": "nM"},
      {"measurement": "IC50", "setting": "TNK1", "result": 1.4, "unit": "nM"}
    ]}
  ]
}
